The values below come from article PMC11847542 (2025).

Test [1] has as its system KRAS RNA G4-c (KRAS RG4) (RNA, G4) AAGGUGGCGGCGGCUCG
Kind of test: CD melting. To be noted: 1 mM K+, 10 mM Tris-HCl pH 7.4, 2 μM RNA.

Test [2] shares this test system. Kind of test: thiazole orange displacement, fluorescence. Particulars: 100 mM K+; 10 mM Tris-HCl pH 7.4; 0.25 μM RNA; tracer 0.5 μM thiazole orange displaced.
Test [3] has the same test system. In words: 1H NMR, imino protons. Particulars: K+ (potassium phosphate, concentration not stated), 10% D2O, 25 °C, 200 μM RNA, 1 to 5 equivalents.
For test [4], the system named is DNA hairpin (DNA, hairpin) CGCGCGCGTTTTCGCGCGCG
Kind of test: competition: fluorescence recovery of MBD-quenched Cy5-labeled KRAS RG4. Particulars: 100 mM K+; 10 mM Tris-HCl pH 7.4; DNA hairpin added as competitor to 1 μM Cy5-G4-c with MBD.

Test [5] deals with 3'-Cy5-labeled KRAS RG4 (G4-c) (RNA, G4) AAGGUGGCGGCGGCUCG
In words: fluorescence quenching titration of Cy5. To be noted: 100 mM K+; 10 mM Tris-HCl pH 7.4; 1 μM RNA.

Test [6] deals with KRAS RNA G4-c (KRAS RG4) (RNA, G4) AAGGUGGCGGCGGCUCG
Kind of test: EMSA. To be noted: 15% native PAGE, Tris-borate-EDTA; 10 μM RNA, 0-50 μM compound. (In general: In EMSA bound probe runs differently from free probe, usually more slowly.)

Test [7] concerns KRAS RNA G4-a (RNA, G4) GCGGCGGCGGAGGCAGCA
In words: CD melting. Particulars: 1 mM K+; 10 mM Tris-HCl pH 7.4; 2 μM RNA, 10 μM compound; Tm alone 66.0 °C.

Test [8] concerns 5'-Cy5-labeled KRAS RG4 (G4-c) (RNA, G4) AAGGUGGCGGCGGCUCG
Kind of test: fluorescence quenching titration of Cy5. To be noted: 100 mM K+; 10 mM Tris-HCl pH 7.4; 1 μM RNA.

The test system of test [9] is KRAS RNA G4-b (RNA, G4) GGCGGCGGCAGUGGCGGCGG
Kind of test: CD melting. To be noted: 1 mM K+; 10 mM Tris-HCl pH 7.4; 2 μM RNA, 10 μM compound; Tm alone 59.5 °C.

The test system of test [10] is RNA hairpin (RNA, hairpin) GGCCGCCGCAGUGGCGGCGG
Kind of test: competition: fluorescence recovery of MBD-quenched Cy5-labeled KRAS RG4. To be noted: 100 mM K+; 10 mM Tris-HCl pH 7.4; RNA hairpin added as competitor to 1 μM Cy5-G4-c with MBD.

For the molecule `CC1CCN(c2ccc3c(c2)c2cc(N4CCC(C)CC4)ccc2c2nc4cc5ccccc5cc4nc32)CC1`, the binding entry in test [1] is “no”. The EC50 in test [2] is 45000 nM.

For the molecule `CC1CCN(c2ccc3c(c2)c2cc([N+]4(C)CCC(C)CC4)ccc2c2nc4cc(Cl)c(Cl)cc4nc32)CC1` (stereo not shown), in [1], the binding entry is recorded as “weak”. Further, in test [2], the EC50 was determined as 7000 nM.

On to `CC1CCN(c2ccc3c(c2)c2cc([N+]4(C)CCC(C)CC4)ccc2c2nc4cc(F)c(F)cc4nc32)CC1` (stereo not shown), for which the binding result in [1] is listed as “weak”. This molecule also had a concentration giving a half-maximal response (EC50) in test [2] of 3300 nM.

`CC1CCN(c2ccc3c(c2)c2cc([N+]4(C)CCC(C)CC4)ccc2c2nc4cc5ccccc5cc4nc32)CC1` (stereo not shown): the binding result is listed as “yes” in [3]; “no” in [4]; “yes” in [5]; “yes” in test [6]; “yes” in [7]; “yes” in test [8]. Besides, the binding entry in [9] was “yes”; in test [10], “no”. Also, in test [1] (10 μM compound, Tm alone 64.1 °C), the ΔTm stood at 11.0 °C. In test [2], this molecule had an EC50 of 1500 nM.

Regarding `CC1CCN(c2ccc3c(c2)c2cc([N+]4(C)CCC(C)CC4)ccc2c2nc4ccccc4nc32)CC1` (stereo not shown), the binding entry in [1] is “weak”. Moreover, the EC50 in [2] came out at 1800 nM.

For `COc1cc2nc3c4ccc(N5CCC(C)CC5)cc4c4cc([N+]5(C)CCC(C)CC5)ccc4c3nc2cc1OC` (stereo not shown), the binding result in test [1] is listed as “yes”. In [2], this molecule registered an EC50 of 1400 nM.

Consider `Cc1cc2nc3c4ccc(N5CCC(C)CC5)cc4c4cc([N+]5(C)CCC(C)CC5)ccc4c3nc2cc1C` (stereo not shown), for which the binding result in test [1] is given as “yes”. The molecule also displayed an EC50 in [2] of 1500 nM.

For orientation: EC50 means the concentration giving half of the maximal effect. High values mean weaker potency, low ones greater potency. One may read the ΔTm as the change in melting temperature against a reference sample.
